Reference: patent US20080200473A1, “Imidazo [1,2-a]Pyridine Compounds, Compositions, Uses and Methods Thereto” (Ferrer Internacional, S.A., priority 2004, published 2008)

How the values were obtained:
[1] = system: α1-GABAA receptor; assay: Ligand-binding assay, competitive with radiolabeled flumazenil, cerebellum membranes; details: Affinity for α1-GABAA receptor, rat cerebellum membranes, radiolabeled flumazenil 1 nM; for % Inhibition 10^−5M: 10^-5M test compound; for % Inhibition 10^−7M: 10^-7M test compound
Experimental: (§1) Ligand-binding assays. Determination of the affinity of test compounds for α1- and α2-GABAA receptor.
(§2) Male Sprague-Dawley rats weighing 200-250 g at the time of experiment were used. After decapitation of the animal, the cerebellum (tissue that mostly contains α1-GABAA receptor) and spinal cord (tissue that mostly contains α2-GABAA receptor) were removed. The membranes were prepared according to the method by J. Lameh et al. (Prog. Neuro-Psychopharmacol. Biol. Psychiatry, 24, 979-991, 2000) and H. Noguchi et al. (Eur. J. Pharm., 434, 21-28, 2002). Once the tissues weighed, they were suspended in 50 mM Tris.HCl (pH 7.4), 1:40 (w/v), or sucrose 0.32 M in the case of spinal cord, homogenized and then centrifuged at 20,000 g for 10 min at 7° C. twice. The resulting pellet was resuspended under the same conditions and centrifuged again. The pellet was finally resuspended on a minimum volume and kept at −80° C. overnight. On the next day, the process was repeated until the final pellet was resuspended at a ratio of 1:10 (w/v) in the case of cerebellum and at a ratio of 1:5 (w/v) in the case of spinal cord.
(§3) Affinity was determined by competitive tests using radiolabeled flumazenil as ligand. The tests were performed according to the methods described by S. Arbilla et al. (Eur. J. Pharmacol., 130, 257-263, 1986); and Y. Wu et al. (Eur. J. Pharmacol., 278, 125-132, 1995) using 96-well microtiter plates. The membranes containing the study receptors, flumazenil (radiolabeling at a final concentration of 1 nM) and ascending concentrations of test compounds (in a total volume of 230 μL in 50 mM [ph 7.4] Tris.HCl buffer) were incubated. Simultaneously, the membranes were only incubated with the radiolabeled flumazenil (total binding, 100%) and in the presence of an elevated concentration of unradiolabeled flumazenil (non-specific binding, % estimation of radiolabeled ligand). The reactions started on adding the radiolabeled ligand followed by incubation for 60 minutes at 4° C. At the end of the incubation period, 200 μL of reaction were transferred to a multiscreen plate (Millipore) and filtered using a vacuum manifold and then washed three times with cold test buffer. The multiscreen plates were equipped with a GF/B filter that retained the membranes containing the receptors and the radiolabeled ligand which has been bound to the receptors. After washing, the plates were left till dry. Once dried, scintillation liquid was added and left under stirring overnight. The next day the plates were counted using a Perkin-Elmer Microbeta scintillation counter.
(§4) For analysis of the results the percentage of specific binding for every concentration of test compound was calculated as follows:
(§5) % specific binding=(X−N/T−N)×100
(§6) where, X: amount of bound ligand for every concentration of compound. T: total binding, maximum amount bound to the radiolabeled ligand. N: non-specific binding, amount of radiolabeled ligand bound in a non-specific way irrespective of the receptor used.
(§7) Every concentrations of compound were tested in triplicate and their mean values were used to determine the experimental values of % specific binding versus the concentration of compound. Affinity data are expressed as % inhibition at 10^-5M and 10^-7M concentrations.

[2] = system: mice; assay: In vivo predictive sedation-hypnosis test (inhibition of traveled distance); set-up: species or system mouse; details: male CD1 mice; single equimolecular intraperitoneal doses; traveled distance over 30 min after dosing (first 5 min discarded) versus control
Experimental: In vivo determination of predictive sedative-hypnotic action.
The in vivo effects of these compounds were assessed by a predictive sedation-hypnosis test in mice (D. J. Sanger et al., Eur. J. Pharmacol., 313, 35-42, 1996; and G. Griebel et al., Psychopharmacology, 146, 205-213, 1999).
Groups of 5-8 male CD1 mice, weighing 22-26 g at the time of test, were used. The test compounds were administered in single equimolecular intraperitoneal doses, suspended in 0.25% agar with one drop of Tween in a volume of 10 mL/kg. Control animals received the vehicle alone. Using a Smart System (Panlab, S. L., Spain) the traveled distance in cm is recorded for each mouse at 5-min intervals during a period of 30 minutes after dosing. The inhibition percentage of traveled distance of treated animals versus control animals (the first 5 min were discarded) was calculated.

[3] = system: α2-GABAA receptor; assay: Ligand-binding assay, competitive with radiolabeled flumazenil, spinal cord membranes; details: Affinity for α2-GABAA receptor, rat spinal cord membranes, radiolabeled flumazenil 1 nM; for % Inhibition 10^−5M: 10^-5M test compound; for % Inhibition 10^−7M: 10^-7M test compound
Experimental: as §1, §2, §3, §4, §5, §6, §7

Row | Structure (SMILES) | % Inhibition 10^−5M [1] | % Inhibition 10^−7M [1] | % Inhibition Motor Activity [2] | % Inhibition 10^−5M [3] | % Inhibition 10^−7M [3]
1 | Cc1ccc(-c2nc3ccc(C)cn3c2CNC(=O)c2cccnc2)cc1 [Example 63, N-(6-Methyl-2-p-tolyl-imidazo[1,2-a]pyridin-3-ylmethyl)-nicotinamide] | 98.5% | 36.1% | 74.86% | 89.8% | 13.4%
2 | Cc1ccc(-c2nc3ccc(C)cn3c2CNC(=O)C2=NNC(=O)CC2)cc1 [Example 65, 6-Oxo-1,4,5,6-tetrahydro-pyridazine-3-carboxylic acid (6-methyl-2-p-tolyl-imidazo[1,2-a]pyridin-3-ylmethyl)-amide] | 99.5% | 83.9% | 85.22% | 95.4% | 39.1%
3 | Cc1ccc(-c2nc3ccc(C)cn3c2CNC(=O)c2cc(C)n(C)n2)cc1 [Example 67, 1,5-Dimethyl-1H-pyrazole-3-carboxylic acid (6-methyl-2-p-tolyl-imidazo[1,2-a]pyridin-3-ylmethyl)-amide] | 99.6% | 84.7% | 78.09% | 96.6% | 47.3%
4 | Cc1ccc(-c2nc3ccc(C)cn3c2CNC(=O)c2csc(C)n2)cc1 [Example 69, 2-Methyl-thiazole-4-carboxylic acid (6-methyl-2-p-tolyl-imidazo[1,2-a]pyridin-3-ylmethyl)-amide] | 100.4% | 93.4% | 78.41% | 98.8% | 74.1%
5 | Cc1ccc(-c2nc3ccc(C)cn3c2CNC(=O)c2csnn2)cc1 [Example 70, [1,2,3]Thiadiazole-4-carboxylic acid (6-methyl-2-p-tolyl-imidazo[1,2-a]pyridin-3-ylmethyl)-amide] | 100.4% | 79.7% | 90.77% | 97.7% | 25.6%
6 | Cc1ccc(-c2nc3ccc(C)cn3c2CNC(=O)Cc2cccs2)cc1 [Example 71, N-(6-Methyl-2-p-tolyl-imidazo[1,2-a]pyridin-3-ylmethyl)-2-thiophen-2-yl-acetamide] | 96.4% | 21.9% | 94.08% | 67.8% | 7.2%
7 | Cc1ccc(-c2nc3ccc(C)cn3c2CNC(=O)c2cc(C)on2)cc1 [Example 72, 5-Methyl-isoxazole-3-carboxylic acid (6-methyl-2-p-tolyl-imidazo[1,2-a]pyridin-3-ylmethyl)-amide] | 99.8% | 73.4% | 73.81% | 95% | 33.1%
8 | Cc1ccc(-c2nc3ccc(C)cn3c2CNC(=O)c2cn(C)cn2)cc1 [Example 74, 1-Methyl-1H-imidazole-4-carboxylic acid (6-methyl-2-p-tolyl-imidazo[1,2-a]pyridin-3-ylmethyl)-amide] | 99.9% | 95.3% | 77.37% | 98.6% | 63.0%
9 | Cc1ccc(-c2nc3ccc(C)cn3c2CNC(=O)c2nccn2C)cc1 [Example 78, 1-Methyl-1H-imidazole-2-carboxylic acid (6-methyl-2-p-tolyl-imidazo[1,2-a]pyridin-3-ylmethyl)-amide] | 100.2% | 97.9% | 88.10% | 98.8% | 85.9%
10 | Cc1ccc(-c2nc3ccc(C)cn3c2CNC(=O)c2cscn2)cc1 [Example 81, Thiazole-4-carboxylic acid (6-methyl-2-p-tolyl-imidazo[1,2-a]pyridin-3-ylmethyl)-amide] | 99.6% | 69.9% | 84.31% | 94.3% | 1.5%
11 | Cc1ccc(-c2nc3ccc(C)cn3c2CNC(=O)c2nc(C)oc2C)cc1 [Example 83, 2,5-Dimethyl-oxazole-4-carboxylic acid (6-methyl-2-p-tolyl-imidazo[1,2-a]pyridin-3-ylmethyl)-amide] | 100.0% | 93.6% | 93.22% | 93.2% | 71.1%
12 | Cc1ccc(-c2nc3ccc(C)cn3c2CNC(=O)c2cnccn2)cc1 [Example 89, Pyrazine-2-carboxylic acid (6-methyl-2-p-tolyl-imidazo[1,2-a]pyridin-3-ylmethyl)-amide] | 100.3% | 88.2% | 74.65% | 98.2% | 54.5%
13 | Cc1ccc(-c2nc3ccc(C)cn3c2CNC(=O)c2c(C)noc2C)cc1 [Example 90, 3,5-Dimethyl-isoxazole-4-carboxylic acid (6-methyl-2-p-tolyl-imidazo[1,2-a]pyridin-3-ylmethyl)-amide] | 84.5% | 0.0% | 82.12% | 31.8% | 0.0%
14 | Cc1ccc(-c2nc3ccc(C)cn3c2CN(C)C(=O)c2cscn2)cc1 [Example 94, Thiazole-4-carboxylic acid methyl-(6-methyl-2-p-tolyl-imidazo[1,2-a]pyridin-3-ylmethyl)-amide] | 99.5% | 78.5% | 89.33% | 94.5% | 33.2%
15 | Cc1ccc(-c2nc3ccc(C)cn3c2CC(=O)N(C)C)cc1 [Zolpidem, reference compound] | 94.4% | 73.6% | 90.80% | 78.2% | 20.1%
